Data as given in patent publication US12552756B2, “Deuterated aminothiazole compounds as antiviral compounds” (priority 2020, dated 2026).
“And” between values parts separate entries of the source, which are not always exact repeats. Equal entries are not always repeated. Where two headings read alike, the source gives them in different places. Each block holds one compound with its values, some of them ahead of it.

Assays:
HSV-2 = assay: In-vitro activity, HSV-2 infected Vero; format: cell-based; conditions: Human alphaherpesvirus 2; Vero cells
Method: (§1) The in-vitro activity for (HSV-1 infected Vero), (HSV-2 infected Vero) and (HSV-1 (ACV resistant) infected vero) was tested as outlined in WO2017/174640 and WO2019/068817. For comparison, the non-deuterated matched-pair to Example 1 of the present application has been tested, which is hereinafter designated as Comparative Example C7 and which corresponds to Example 7 of WO2017/174640.

HSV-1 (ACV resistant) = assay: In-vitro activity, HSV-1 (ACV resistant) infected vero; format: cell-based; conditions: Human alphaherpesvirus 1, Vero, read-out: IC50 (HSV-1 ACV resistant)
Method: as §1

HSV-1 = assay: In-vitro activity, HSV-1 infected Vero; format: cell-based; conditions: Human alphaherpesvirus 1; Vero cells
Method: as §1

[1] = Additional microsomal stability, human microsomes, hydroxy metabolite formation; format: in vitro ADME; conditions: human (mixed gender) microsomes, 60 min
Method: The formation of the hydroxy metabolites was quantified via peak area ratio towards the corresponding non-deuterated matched pair when incubating the samples in rat microsomes (SD rat, male) or human microsomes (mixed gender) for 60 min at Admescope. The peak signal (positive mode) was quantified with a Waters Acquity UPLC+Thermo Q-Exactive Focus Orbitrap MS on a Phenomenex Kinetex Biphenyl (2.1×50 mm, 1.7 μm particle size […]) column.

[2] = Brain exposure and brain-to-plasma ratio in mouse; format: in vivo; conditions: C57BI/6N mouse; for behaviour and clinical signs after dosing: oral cassette dosing 10 mg/kg each; for Kp at 4 h: brain/plasma; for Kp at 4 h / concentration at 4 h: oral cassette 10 mg/kg
Method: The brain and plasma exposure for Example 6 as well as for Example 4/2 and for its non-deuterated matched-pair (Comparative Example C4/2/Example 7(—) from WO2017/174640) was asessed in 3 mice (strain C57BI/6N, weight 21-26 g) after oral cassette dosing with a dose of 10 mg/kg each after 4 h. The compounds were formulated in 5% DMSO and 95% aq. HPMC (0.5%). […] Plasma from the retrobulbar venous plexus was analyzed by LC-MS.

[3] = Microsomal stability, human liver microsomes, conversion to hydroxylated metabolite; format: in vitro ADME; conditions: 1st and 2nd replicate
Method: Example 1 and the non-deuterated matched pair (Comparative Example C7/Example 7 from WO2017/174640) were incubated using three different batches of human liver microsomes (HLM) for a period of 60 min. The conversion to the hydroxylated metabolite was monitored by LC-MS.

[4] = Pharmacokinetics in mouse; format: in vivo; conditions: male C57BI/6N mouse; for % AUCextra / t1/2z / tz / AUC(0-inf) / AUC(0-t) / C0 / clearance / concentration at 24 h / Vd / Cmax / Tmax: cassette; for AUC(0-inf) / AUC(0-t) / C0 / clearance / concentration at 24 h / Vd / bioavailability / Cmax / Tmax: plasma; for concentration at 24 h: read-out: Cz; for Vd: read-out: Vz; for bioavailability: po 10 mg/kg vs iv 2 mg/kg
Method: Plasma from the retrobulbar venous plexus was analyzed by LC-MS. The obtained data obtained is as follows (NC=not calculable): […]

[5] = brain, read-out: mean brain conc. with SD
[6] = plasma, read-out: mean plasma conc. with SD

Compound: [2H]C([2H])([2H])c1nc(N(C)C(=O)Cc2ccc(-c3cc(F)ccc3F)cc2)sc1[S@](C)(=N)=O (single isomer, unassigned) [Example 4/1]
IC50 (HSV-2): 50 to 250 nM | IC50 (HSV-1 (ACV resistant)): 50 to 150 nM | IC50 (HSV-1): 50 to 150 nM

Compound: [2H]C([2H])([2H])Oc1ccccc1-c1ccc(CC(=O)N(C)c2nc(C)c(S(N)(=O)=O)s2)cc1 [5/2]
IC50 (HSV-2): 30 to 150 nM | IC50 (HSV-1 (ACV resistant)): 10 to 100 nM | IC50 (HSV-1): 10 to 100 nM

Compound: [2H]c1c([2H])c([2H])c(-c2ccc(CC(=O)N(C)c3nc(C)c(S(N)(=O)=O)s3)cc2)c([2H])c1[2H] [Example 5, 2-([1,1′-Biphenyl]-4-yl-2′,3′,4′,5′,6′-d5)-N-methyl-N-(4-methyl-5-sulfamoyl-thiazol-2-yl)acetamide]
IC50 (HSV-2): 25 to 125 nM | IC50 (HSV-1 (ACV resistant)): 1 to 50 nM | IC50 (HSV-1): 1 to 50 nM

Compound: [2H]C([2H])([2H])c1nc(N(C)C(=O)Cc2ccc(-c3cc(F)ccc3F)cc2)sc1S(N)(=O)=O [Example 6, 2-(2′,5′-Difluoro-[1,1′-biphenyl]-4-yl)-N-methyl-N-(4-(methyl-d3)-5-sulfamoylthiazol-2-yl)acetamide]
hydroxy metabolite peak area ratio [1]: BLQ | IC50 (HSV-2): 2 to 60 nM | IC50 (HSV-1 (ACV resistant)): 2 to 60 nM | behaviour and clinical signs after dosing [2]: no clinical signs observed | Kp at 4 h [2]: 0.78 | concentration at 4 h [2, 5]: 3220 ± 1910 ng/mL | concentration at 4 h [2, 6]: 4130 ± 1760 ng/mL | IC50 (HSV-1): 2 to 60 nM

Compound: [2H]C([2H])([2H])c1nc(N(C)C(=O)Cc2ccc(-c3cc(F)ccc3F)cc2)sc1S(C)(=N)=O (racemic) [Example 1, 2-(2′,5′-Difluoro-[1,1′-biphenyl]-4-yl)-N-methyl-N-(4-(methyl-d3)-5-(S-methyl-sulfonimidoyl)thiazol-2-yl)acetamide]
Parent [nM] 60 min ([3]; HLM batch 38292, 60 min): 928 nM and 1085 nM | Parent [nM] 60 min ([3]; HLM batch 5061002, 60 min): 1083 nM and 1058 nM | Parent [nM] 60 min ([3]; HLM batch 6029002, 60 min): 1231 nM and 1159 nM | IC50 (HSV-2): 25 to 125 nM | IC50 (HSV-1 (ACV resistant)): 25 to 125 nM | IC50 (HSV-1): 25 to 125 nM

Compound: [2H]C([2H])([2H])c1nc(N(C)C(=O)Cc2ccc(-c3cccc(F)c3)cc2F)sc1S(N)(=O)=O [Example 6/1]
IC50 (HSV-2): 4 to 75 nM | IC50 (HSV-1 (ACV resistant)): 2 to 60 nM | IC50 (HSV-1): 2 to 60 nM

Compound: [2H]C([2H])([2H])Oc1cccc(-c2ccc(CC(=O)N(C)c3nc(C)c(S(N)(=O)=O)s3)cc2)c1 [Example 5/1]
IC50 (HSV-2): 5 to 75 nM | IC50 (HSV-1 (ACV resistant)): 10 to 100 nM | IC50 (HSV-1): 10 to 100 nM

% AUCextra ([4]; iv 2 mg/kg): 12.4% | t1/2z ([4]; iv 2 mg/kg): 7.7 h | tz ([4]; iv 2 mg/kg): 24 h | tz ([4]; po 10 mg/kg): 24 h | AUC(0-inf) ([4]; iv 2 mg/kg): 6390 ng·h/mL | AUC(0-t) ([4]; iv 2 mg/kg): 5600 ng·h/mL | C0 ([4]; iv 2 mg/kg): 10.4 ng/mL | clearance ([4]; iv 2 mg/kg): 5.22 mL/min/kg | concentration at 24 h ([4]; iv 2 mg/kg): 71.5 ng/mL | Vd ([4]; iv 2 mg/kg): 3.47 L/kg | bioavailability [4]: 167% | AUC(0-t) ([4]; po 10 mg/kg): 46600 ng·h/mL | Cmax ([4]; po 10 mg/kg): 2960 ng/mL | Tmax ([4]; po 10 mg/kg): 4 h | concentration at 24 h ([4]; po 10 mg/kg): 1260 ng/mL | behaviour and clinical signs after dosing [2]: no clinical signs observed | Kp at 4 h [2]: 1.57 | concentration at 4 h [2, 5]: 5610 ± 1450 ng/mL | concentration at 4 h [2, 6]: 3580 ± 726 ng/mL
Compound: Cc1nc(N(C)C(=O)Cc2ccc(-c3cc(F)ccc3F)cc2)sc1[S@@](C)(=N)=O [Comparative Example C4/2, reference compound]

Compound: [2H]C([2H])([2H])c1nc(N(C)C(=O)Cc2ccc(-c3cc(F)ccc3F)cc2)sc1[S@@](C)(=N)=O (single isomer, unassigned) [Example 4/2]
% AUCextra ([4]; iv 2 mg/kg): 24.9% | t1/2z ([4]; iv 2 mg/kg): 11.3 h | tz ([4]; iv 2 mg/kg): 24 h | tz ([4]; po 10 mg/kg): 24 h | AUC(0-inf) ([4]; iv 2 mg/kg): 10600 ng·h/mL | AUC(0-t) ([4]; iv 2 mg/kg): 8000 ng·h/mL | C0 ([4]; iv 2 mg/kg): 16.2 ng/mL | clearance ([4]; iv 2 mg/kg): 3.13 mL/min/kg | concentration at 24 h ([4]; iv 2 mg/kg): 162 ng/mL | Vd ([4]; iv 2 mg/kg): 3.07 L/kg | bioavailability [4]: 201% | AUC(0-t) ([4]; po 10 mg/kg): 80200 ng·h/mL | Cmax ([4]; po 10 mg/kg): 4610 ng/mL | Tmax ([4]; po 10 mg/kg): 4 h | concentration at 24 h ([4]; po 10 mg/kg): 2730 ng/mL | IC50 (HSV-2): 10 to 90 nM | IC50 (HSV-1 (ACV resistant)): 5 to 75 nM | improvement of plasma and brain exposure compared to the non-deuterated matched-pair ([2]; oral 10 mg/kg, after 4 h): over 50% | behaviour and clinical signs after dosing [2]: no clinical signs observed | Kp at 4 h [2]: 1.57 | concentration at 4 h [2, 5]: 8610 ± 2180 ng/mL | concentration at 4 h [2, 6]: 5470 ± 1320 ng/mL | IC50 (HSV-1): 5 to 75 nM

Compound: [2H]C([2H])([2H])c1nc(N(C)C(=O)Cc2ccc(-c3cc(F)ccc3F)cc2F)sc1S(N)(=O)=O [6/2]
IC50 (HSV-2): 3 to 75 nM | IC50 (HSV-1 (ACV resistant)): 2 to 60 nM | IC50 (HSV-1): 2 to 60 nM

Compound: Cc1nc(N(C)C(=O)Cc2ccc(-c3cc(F)ccc3F)cc2)sc1S(C)(=N)=O (racemic) [Comparative Example C7, reference compound]
Parent [nM] 60 min ([3]; HLM batch 38292, 60 min, listed as Comp. Example C7): 1053 nM and 1255 nM | Parent [nM] 60 min ([3]; HLM batch 5061002, 60 min, listed as Comp. Example C7): 1122 nM and 910 nM | Parent [nM] 60 min ([3]; HLM batch 6029002, 60 min, listed as Comp. Example C7): 937 nM and 973 nM | IC50 (HSV-2): 25 to 100 nM | IC50 (HSV-1 (ACV resistant)): 25 to 100 nM | IC50 (HSV-1): 25 to 100 nM
